Measurements as given in PubChem BioAssay (NCI).
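Step 1: Grow cells in 96-well plates. Step 2: Expose to compound for 48 hours at 5 concentrations. Step 3: Interpolate endpoints linearly; if unreached, use highest concentration. GI50: concentration for 50% inhibition of growth. The concentration for full growth arrest is given as TGI.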 Where a SMILES comes first, the peptide text is derived from it. The star is where a group is joined. Cbz = O=C(OCc1ccccc1)*

How the values were obtained:
Test in all cases: NCI tumour cell line growth inhibition, 48 h
ACHN renal = system: ACHN renal
EKVX NSCLC = system: EKVX NSCLC
HS 578T breast = system: HS 578T breast
MOLT-4 leukemia = system: MOLT-4 leukemia
SK-MEL-2 melanoma = system: SK-MEL-2 melanoma
SK-MEL-28 melanoma = system: SK-MEL-28 melanoma
SNB-19 CNS = system: SNB-19 CNS
SNB-75 CNS = system: SNB-75 CNS
SR leukemia = system: SR leukemia
UACC-62 melanoma = system: UACC-62 melanoma

| SMILES | TGI (ACHN renal) [µM] | TGI (EKVX NSCLC) [µM] | TGI (HS 578T breast) [µM] | TGI (MOLT-4 leukemia) [µM] | TGI (SK-MEL-2 melanoma) [µM] | TGI (SK-MEL-28 melanoma) [µM] | TGI (SNB-19 CNS) [µM] | TGI (SNB-75 CNS) [µM] | TGI (SR leukemia) [µM] | TGI (UACC-62 melanoma) [µM] | GI50 (ACHN renal) [µM] | GI50 (EKVX NSCLC) [µM] | GI50 (HS 578T breast) [µM] | GI50 (MOLT-4 leukemia) [µM] | GI50 (SK-MEL-2 melanoma) [µM] | GI50 (SK-MEL-28 melanoma) [µM] | GI50 (SNB-19 CNS) [µM] | GI50 (SNB-75 CNS) [µM] | GI50 (SR leukemia) [µM] | GI50 (UACC-62 melanoma) [µM] |
| --- | --- | --- | --- | --- | --- | --- | --- | --- | --- | --- | --- | --- | --- | --- | --- | --- | --- | --- | --- | --- |
| CC(=O)OCCOCCN1CCN(c2c(O)c3c(c(O)c2Cl)C(=O)C=CC3=O)CC1 | 0.757 | 3.22 | 7.59 | 2.51 | 3.26 | 2.22 | 6.82 | 3.71 | 4.54 | 2.81 |  |  |  |  |  |  |  |  |  |  |
| CC(=O)OC1OC(c2ccoc2)C[C@@]12C1CCC3O[C@]3(C)[C@]1(C)C[C@H](OC(C)=O)[C@H]2C (stereo not given in full) | > 75 | > 75 | > 75 | > 75 | > 75 | > 75 | > 75 | > 75 | > 75 | > 75 |  |  |  |  |  |  |  |  |  |  |
| Brc1ccc(-c2cc(-c3ccc4c(c3)OCO4)c(-c3cccs3)n2Cc2ccccc2)cc1 | > 100 | > 100 | > 100 | > 100 | > 100 | > 100 | > 100 | > 100 | > 100 | > 100 |  |  |  |  |  |  |  |  |  |  |
| COc1cc(Nc2nc3ccccc3nc2C(C)C)cc(OC)c1OC | > 100 | > 100 | > 100 | > 100 | > 100 | > 100 | > 100 | > 100 | > 100 | > 100 |  |  |  |  |  |  |  |  |  |  |
| CC(=O)OC(=C(C#N)C#N)c1nccnc1C(C)=O | > 20 | > 20 | > 20 | > 20 | > 20 | > 20 | > 20 | 18.6 | > 20 | > 20 |  |  |  |  |  |  |  |  |  |  |
| COC(=O)c1ccc(C)cc1CC1Cc2c(C)cccc2C1=O (stereo not given) | > 94.3 | 73.5 | 34 | > 47.2 | 17.5 | 84.7 | 89.7 | 20.9 | > 100 | 22 |  |  |  |  |  |  |  |  |  |  |
| C=CCn1c(-c2ccc(Cl)cc2Cl)csc1=Nc1c(C)n(C)n(-c2ccccc2)c1=O | 27.7 | 13.5 | 44.7 | 18.6 | 29.2 | 26.7 | 24.7 | 24.5 | 21.9 | 22.5 |  |  |  |  |  |  |  |  |  |  |
| Cc1nn(-c2ccccc2)c2nc3ccc(Cl)cc3c(-c3ccccc3)c12 | > 100 | > 100 | > 100 | > 100 | > 100 | > 100 | > 100 | > 100 | > 100 | > 100 |  |  |  |  |  |  |  |  |  |  |
| COc1ccc(N(C(=O)NCCO)c2ccccc2)cc1 | > 100 | > 100 | > 100 | > 100 | > 100 | > 100 | > 100 | > 100 | > 100 | > 100 |  |  |  |  |  |  |  |  |  |  |
| NC(=O)C1CCCN1C(=O)N(CCCl)N=O (stereo not given) | > 100 | > 100 | > 100 | > 100 | > 100 | > 100 | > 100 | 72.8 | > 100 | > 100 |  |  |  |  |  |  |  |  |  |  |
| CC(=O)c1ccccc1NS(=O)(=O)c1ccc2nc(C)n(NS(=O)(=O)c3ccccc3C(C)=O)c(=O)c2c1 | > 100 | > 100 | > 100 | > 100 | > 100 | > 100 | > 100 | > 100 | > 100 | > 100 |  |  |  |  |  |  |  |  |  |  |
| CCOP(C)(=O)/C(Cc1ccc(OC)c(OC)c1)=N\O (stereo not given) | > 100 | > 100 | > 100 | > 100 | > 100 | > 100 | > 100 | > 100 | > 100 | > 100 |  |  |  |  |  |  |  |  |  |  |
| C[C@]12CCc3sc(-c4cccc(F)c4)nc3C1=CC[C@@H]1[C@@H]2CC[C@]2(C)C(=O)CC[C@@H]12 | 3.01 | 87.2 | > 100 | 7.89 | 10.7 | 4.07 | > 100 | > 100 | 10.5 | 5.7 | 1.64 | 4.79 | 3.86 | 1.69 | 2.74 | 1.53 | 4.79 | 3.43 | 2.62 | 1.9 |
| CNc1nc2c(C)ccc3[nH]c(N(C)C)nc3c-2n1 | 76.8 | > 100 | > 100 | > 100 | > 100 | > 100 | 65 | > 100 | 97.9 | > 100 |  |  |  |  |  |  |  |  |  |  |
| NC(N)=NS(=O)(=O)c1ccc(NC(=O)c2ccc3nc4ccccc4c(N)c3c2)cc1 | > 100 | > 100 | > 100 | > 100 | > 100 | > 100 | > 100 | > 100 | > 100 | > 100 |  |  |  |  |  |  |  |  |  |  |
| CSc1ccc2c(cc1=O)[C@@H](NC(=O)c1ccc([N+](=O)[O-])cc1)CCc1cc(O)c(O)c(O)c1-2 | > 100 | > 100 | 62 | > 100 | > 100 | > 100 | > 100 | > 100 | > 100 | > 100 |  |  |  |  |  |  |  |  |  |  |
| CC(C)(O)CCc1ccc(O)c2c(=O)c3c(O)c4c(cc3oc12)O[C@H]1OC=C[C@@]41O | < 0.01 | > 61.2 | 41.6 | 0.422 | < 0.01 | 1.38 | > 59.5 | 10.1 | > 100 | < 0.01 |  |  |  |  |  |  |  |  |  |  |
| CCOC(=O)CNC(=O)C(C)NC(=O)C(NC(=O)OCc1ccccc1)C(C)C (stereo not drawn) (Cbz-Val-Ala-Gly-OEt; configuration not given here) | > 100 | > 100 | > 100 | > 100 | > 100 | > 100 | > 100 | > 100 | > 100 | > 100 |  |  |  |  |  |  |  |  |  |  |
